This is an account of results in patent publication US20250206738A1, “WRN INHIBITORS” (Nimbus Wadjet, Inc., priority 2023, published 2025).

This experiment deals with T1, human Werner helicase (WRN, Uniprot Q14191, amino acids 517-1235 with L1074F point mutation; WRN-BV08) (Homo sapiens, UniProt Q14191, L1074F).
T1 construct: Uniprot Q14191, amino acids 517-1235 with L1074F point mutation; 8xHis (C, cleaved yes); TEV cleavage site (ENLYFQG) (C, cleaved yes); made in house; host or cells: Sf9 insect cells (baculovirus, pFastBac)
T1 sequence (Q14191 with tags, fused parts or gaps L1074F): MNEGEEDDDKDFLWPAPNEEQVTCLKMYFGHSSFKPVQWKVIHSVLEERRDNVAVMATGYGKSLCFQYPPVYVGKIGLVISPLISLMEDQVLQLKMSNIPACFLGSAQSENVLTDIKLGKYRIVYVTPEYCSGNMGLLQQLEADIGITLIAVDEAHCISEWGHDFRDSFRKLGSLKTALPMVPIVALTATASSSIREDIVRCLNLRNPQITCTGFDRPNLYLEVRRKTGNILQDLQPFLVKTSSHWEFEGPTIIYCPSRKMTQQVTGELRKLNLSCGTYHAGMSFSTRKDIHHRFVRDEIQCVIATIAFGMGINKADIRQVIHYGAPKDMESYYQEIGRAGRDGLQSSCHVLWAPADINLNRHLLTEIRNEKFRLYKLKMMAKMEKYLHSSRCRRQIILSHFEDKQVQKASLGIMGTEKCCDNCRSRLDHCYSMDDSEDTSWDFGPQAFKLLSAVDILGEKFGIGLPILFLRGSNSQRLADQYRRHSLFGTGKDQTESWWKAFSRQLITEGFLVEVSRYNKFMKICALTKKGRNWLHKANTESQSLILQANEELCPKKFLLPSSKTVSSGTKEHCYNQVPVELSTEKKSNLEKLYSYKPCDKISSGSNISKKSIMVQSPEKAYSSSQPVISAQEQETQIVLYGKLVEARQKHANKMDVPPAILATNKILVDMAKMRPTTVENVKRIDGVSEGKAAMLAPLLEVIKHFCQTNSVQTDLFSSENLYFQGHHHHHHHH
The experiment in a line: WRN (BV08) ADP-Glo assay. The experiment is classed as biochemical. The conditions noted are these: WRN-BV08 (aa 517-1235, L1074F); read-out: ADP-Glo_hWRN_IC50. The text has this: Example 2: WRN (BV08) ADP-Glo Assay Protocol
Bovine skin gelatin (BSG), dimethyl sulfoxide (DMSO), Pluronic F-127 and tris(2-carboxyethyl)phosphine hydrochloride solution (TCEP) were purchased from Sigma-Aldrich (St. Louis, MO) at the highest level of purity possible. Bicine buffer solution was purchased from Alfa Aesar (Tewksbury, MA) and compound NSC-617145 was purchased from Tocris (Minneapolis, MN). DNA duplex was synthesized at BGI (Shenzhen, China) and was composed of strand 1 with the sequence 5′-[…]-3′ (SEQ ID NO.: 1) and strand 2 with the sequence 5′-[…]-3′ (SEQ ID NO.: 2). DNA strands were annealed by heating to 95° C. for 5 minutes followed by slow cooling to room temperature. Compounds in 100% DMSO ([…]) were spotted into a 384-well white polystyrene Optiplate-384 (Perkin Elmer; Waltham, MA) assay plate using a LabCyte Echo 550 (Agilent; Santa Clara, CA). DMSO ([…]) was added to columns 12, rows A-H and column 24, rows I-P for the maximum signal control. Compound NSC-617145 ([…]) was added to columns 12, rows I-P and 24, rows A-H for the minimum signal control (100% inhibition). Compounds/DMSO were preincubated for 15 minutes at 25° C. with […] 2×WRN (BV08), prepared as described below, in assay buffer containing 20 mM Bicine (pH=7.5), 1 mM MgCl2, 10 mM KCl, 0.1% Pluronic F-127, 0.005% BSG, 1 mM TCEP. The reaction was initiated by the addition of […] 2× substrate mixture in assay buffer and incubated for 60 minutes at 25° C. The final concentrations of the assay components were 0.15 nM WRN, […], and 0.1 nM DNA duplex. The final DMSO concentration was 1% and the reference compound concentration (NSC-617145) used for the minimal signal control was […]. The reaction was stopped by the addition of the ADP-Glo Kit components (Promega; Madison, WI) as directed and the relative luminescence units (RLU) were read on an Envision 2104 (Perkin Elmer; Waltham, MA).
% Inhibition Calculation:
Where RLU=relative luminescence units, sample=signal in sample well, and MIN and MAX are the respective minimum and maximum signal controls.
Four-Parameter IC50 Fit Equation:
Where top and bottom are normally allowed to float but may be fixed at 100 or 0 respectively in a 3-parameter fit. Y is the % inhibition and X is the compound concentration.
Molecular Biology and virus production. The DNA encoding human Werner helicase (Uniprot Q14191, amino acids 517-1235 with L1074F point mutation) was generated with codon-optimization for […] expression and subcloned into the pFastBac vector with a TEV cleavable 8×His tag (SEQ ID NO: 5) (WRN—BV08). The baculovirus from the expression plasmid WRN—BV08 was generated from transfection and amplification following the manufacturer's instructions.
Sf9 cells grown in SF900II media were infected with 1:200 WRN—BV08 P2 virus and incubated for protein expression for 72 h at 27° C. The WRN protein was purified using the following protocol. The cell pellets were thawed and resuspended in buffer A (50 mM Tris, pH 7.5, 500 mM NaCl, 1 mM TCEP, 10% Glycerol) supplemented with 0.5% CHAPS, 1 mM PMSF, 1 μg/ml Leupeptin, 1 μg/ml Pepstatin, and the Pierce Universal Nuclease and cocktail tablet. Cleared lysates were loaded onto a Ni Sepharose™ excel column and washed with buffer A and bound protein was eluted with buffer A supplemented with 300 mM imidazole. The eluted protein was dialyzed against buffer A and digested by His-tagged TEV (1:5 ratio) overnight at 4° C. ZnCl2 was added into the sample at final 15 μM before loading onto a second Ni Sepharose™ excel column. Untagged WRN protein was eluted from the column with buffer A supplemented with 20 mM imidazole, dialyzed overnight into buffer B (50 mM Tris, pH 7.5, 1 mM TCEP, 10% Glycerol) supplemented with 150 mM NaCl and loaded onto a Heparin column. Proteins were eluted with a step gradient of buffer B supplemented with 150 mM, 200 mM, 300 mM and 500 mM NaCl. […]
In general terms: ADP-Glo turns the ADP formed in a reaction into a luminescent signal.
Take `CCc1c(N2CCN(C(=O)c3nocc3O)[C@H]3CC[C@@H]32)c(=O)c2nn(C3=CCOCC3)nc2n1CC(=O)NC12CC(C(C)C)(C1)C2` [I-161, 2-[2-(3,6-dihydro-2H-pyran-4-yl)-5-ethyl-6-[(1S,6S)-5-(4-hydroxy-1,2-oxazole-3-carbonyl)-2,5-diazabicyclo[4.2.0]octan-2-yl]-7-oxo-2H,4H,7H-[1,2,3]triazolo[4,5-b]pyridin-4-yl]-N-[3-(propan-2-yl)bicyclo[1.1.1]pentan-1-yl]acetamide]: the IC50 was at most 5 nM. As for `CCc1c(N2CCN(C(=O)c3ncnc(C)c3O)[C@H]3CCC[C@@H]32)c(=O)c2nn(C3=CCOCC3)nc2n1CC(=O)NC12CC(C3CC3)(C1)C2` [I-60, 2-{6-[(4aS,7aS)-4-(5-hydroxy-6-methylpyrimidine-4-carbonyl)-octahydro-1H-cyclopenta[b]pyrazin-1-yl]-2-(3,6-dihydro-2H-pyran-4-yl)-5-ethyl-7-oxo-2H,4H,7H-[1,2,3]triazolo[4,5-b]pyridin-4-yl}-N-{3-cyclopropylbicyclo[1.1.1]pentan-1-yl}acetamide], the figure is 5 to 50 nM; as for `CCc1c(N2CCN(C(=O)c3ncnc(C)c3O)[C@H]3CC[C@@H]32)c(=O)c2nn(-c3ccnc(OC)c3)cc2n1CC(=O)NC12CC(C3CC3)(C1)C2` [I-177, N-{3-cyclopropylbicyclo[1.1.1]pentan-1-yl}-2-{5-ethyl-6-[(1S,6S)-5-(5-hydroxy-6-methylpyrimidine-4-carbonyl)-2,5-diazabicyclo[4.2.0]octan-2-yl]-2-(2-methoxypyridin-4-yl)-7-oxo-2H,4H,7H-pyrazolo[4,3-b]pyridin-4-yl}acetamide], 5 to 50 nM. To `CCc1c(N2CCN(C(=O)c3ncc4c(c3O)CCO4)CC2)c(=O)n2nc(C3=CCOCC3)nc2n1CC(=O)NC12CC(OC)(C1)C2` [I-12, 2-(2-(3,6-dihydro-2H-pyran-4-yl)-5-ethyl-6-(4-(4-hydroxy-2,3-dihydrofuro[2,3-c]pyridine-5-carbonyl)piperazin-1-yl)-7-oxo-[1,2,4]triazolo[1,5-a]pyrimidin-4(7H)-yl)-N-(3-methoxybicyclo[1.1.1]pentan-1-yl)acetamide] belongs above 500 nM; to `CCc1c(N2CCN(C(=O)c3ncnc(C)c3O)[C@H]3CCC[C@@H]32)c(=O)c2nn(-c3ccnc(OC)c3)nc2n1CC(=O)NC12CC(C3CC3)(C1)C2` [I-54, 2-{6-[(4aS,7aS)-4-(5-hydroxy-6-methylpyrimidine-4-carbonyl)-octahydro-1H-cyclopenta[b]pyrazin-1-yl]-5-ethyl-2-(2-methoxypyridin-4-yl)-7-oxo-2H,4H,7H-[1,2,3]triazolo[4,5-b]pyridin-4-yl}-N-{3-cyclopropylbicyclo[1.1.1]pentan-1-yl}acetamide], 5 to 50 nM.

On to `CCc1c(N2CCN(C(=O)c3ncnc(C)c3O)[C@H]3CC[C@@H]32)c(=O)c2nn(-c3ccc(OC)cc3)nc2n1CC(=O)NC12CC(C(C)C)(C1)C2` [I-145, 2-{5-ethyl-6-[(1S,6S)-5-(5-hydroxy-6-methylpyrimidine-4-carbonyl)-2,5-diazabicyclo[4.2.0]octan-2-yl]-2-(4-methoxyphenyl)-7-oxo-2H,4H,7H-[1,2,3]triazolo[4,5-b]pyridin-4-yl}-N-[3-(propan-2-yl)bicyclo[1.1.1]pentan-1-yl]acetamide], for which the IC50 was at most 5 nM. As for `CCc1c(N2CCN(C(=O)c3c(OC)ncc(F)c3O)[C@H]3CC[C@@H]32)c(=O)c2nn(-c3ccnc(OC)c3)nc2n1CC(=O)NC12CC(C(C)C)(C1)C2` [I-166, 2-{5-ethyl-6-[(1S,6S)-5-(5-fluoro-4-hydroxy-2-methoxypyridine-3-carbonyl)-2,5-diazabicyclo[4.2.0]octan-2-yl]-2-(2-methoxypyridin-4-yl)-7-oxo-2H,4H,7H-[1,2,3]triazolo[4,5-b]pyridin-4-yl}-N-[3-(propan-2-yl)bicyclo[1.1.1]pentan-1-yl]acetamide], the figure is at most 5 nM; as for `CCc1c(N2CCN(C(=O)c3c(COC)cccc3OC)[C@H]3CC[C@@H]32)c(=O)c2nn(C3=CCOCC3)nc2n1CC(=O)NC12CC(C3CC3)(C1)C2` [I-199, N-{3-cyclopropylbicyclo[1.1.1]pentan-1-yl}-2-[2-(3,6-dihydro-2H-pyran-4-yl)-5-ethyl-6-[(1S,6S)-5-[2-methoxy-6-(methoxymethyl)benzoyl]-2,5-diazabicyclo[4.2.0]octan-2-yl]-7-oxo-2H,4H,7H-[1,2,3]triazolo[4,5-b]pyridin-4-yl]acetamide], 5 to 50 nM; as for `CCc1c(N2CCN(C(=O)c3ncc4c(c3O)CCO4)CC2)c(=O)n2nc(C3=CCOCC3)nc2n1CC(=O)NC12CC(C)(C1)C2` [I-5, 2-(2-(3,6-dihydro-2H-pyran-4-yl)-5-ethyl-6-(4-(4-hydroxy-2,3-dihydrofuro[2,3-c]pyridine-5-carbonyl)piperazin-1-yl)-7-oxo-[1,2,4]triazolo[1,5-a]pyrimidin-4(7H)-yl)-N-(3-methylbicyclo[1.1.1]pentan-1-yl)acetamide], 50 to 100 nM. To `CCc1c(N2CCN(C(=O)c3ncnc(C)c3O)[C@H]3CC[C@@H]32)c(=O)c2nn(-c3ccnc(OC)c3)nc2n1CC(=O)NC12CC(C3CCC3)(C1)C2` [I-80, N-{3-cyclobutylbicyclo[1.1.1]pentan-1-yl}-2-{5-ethyl-6-[(1S,6S)-5-(5-hydroxy-6-methylpyrimidine-4-carbonyl)-2,5-diazabicyclo[4.2.0]octan-2-yl]-2-(2-methoxypyridin-4-yl)-7-oxo-2H,4H,7H-[1,2,3]triazolo[4,5-b]pyridin-4-yl}acetamide] belongs at most 5 nM. As for `CCc1c(N2CCN(C(=O)c3ncc4c(c3O)CCO4)CC2)c(=O)n2nc(C3=CCOCC3)nc2n1CC(=O)NC12CC(F)(C1)C2` [I-6, 2-(2-(3,6-dihydro-2H-pyran-4-yl)-5-ethyl-6-(4-(4-hydroxy-2,3-dihydrofuro[2,3-c]pyridine-5-carbonyl)piperazin-1-yl)-7-oxo-[1,2,4]triazolo[1,5-a]pyrimidin-4(7H)-yl)-N-(3-fluorobicyclo[1.1.1]pentan-1-yl)acetamide], the figure is above 500 nM. In the case of `CCc1c(N2CCN(C(=O)c3ncnc(C)c3O)[C@H]3CC[C@@H]32)c(=O)c2nn(-c3ccnc(C(F)F)c3)nc2n1CC(=O)NC12CC(C3CC3)(C1)C2` [I-171, N-{3-cyclopropylbicyclo[1.1.1]pentan-1-yl}-2-{2-[2-(difluoromethyl)pyridin-4-yl]-5-ethyl-6-[(1S,6S)-5-(5-hydroxy-6-methylpyrimidine-4-carbonyl)-2,5-diazabicyclo[4.2.0]octan-2-yl]-7-oxo-2H,4H,7H-[1,2,3]triazolo[4,5-b]pyridin-4-yl}acetamide], the IC50 lay within 5 to 50 nM.

As to `CCc1c(N2CCN(C(=O)c3ncnc(C)c3O)[C@H]3CC[C@@H]32)c(=O)c2nn(-c3ccnc(C(F)(F)F)c3)nc2n1CC(=O)NC12CC(C3CC3)(C1)C2` [I-165, N-{3-cyclopropylbicyclo[1.1.1]pentan-1-yl}-2-{5-ethyl-6-[(1S,6S)-5-(5-hydroxy-6-methylpyrimidine-4-carbonyl)-2,5-diazabicyclo[4.2.0]octan-2-yl]-7-oxo-2-[2-(trifluoromethyl)pyridin-4-yl]-2H,4H,7H-[1,2,3]triazolo[4,5-b]pyridin-4-yl}acetamide], the IC50 lay in the range of 5 to 50 nM.
